Laboratory results from patent US20090156471A1, “Use of anti-amyloid agents for treating and typing pathogen infections” (RAMOT AT TEL AVIV UNIVERSITY LTD., priority 2005, published 2009).
“Also recorded” adds a separate entry of the source.

Legend:
[1] = TEM analysis of peptide self-assembly into fibrillar structures; assay type: physicochemical; conditions: for self-assembly / fibril formation observed by TEM: peptide in water 10 to 50 mg/ml, room temperature, 3-6 days (micrographs: 50 mg/ml, 1 week)
Description: TEM analysis—In all examined cases, peptides were dissolved in water to a concentration of 10 to 50 mg/ml and incubated at room-temperature (RT). Fresh stocks were prepared for each and every experiment. […] Following 1 minute, excess fluid was removed, and the grid was then negatively stained with 10 μl of 2% uranyl-acetate in water. Following 2 minutes, excess fluid was removed from the grid. Samples were viewed in JEOL 1200 EX transmission electron microscope. In the experiments shown, 50 mg/ml peptides were used and micrographs were taken following 1 week. Bar represents 100 nm.

[2] = test system: curli-expressing E. coli XL1-Blue(pMRInv) binding to bovine fibronectin; test: Fibronectin binding (adhesion of bacteria to fibronectin coated wells); assay type: cell-based, Escherichia coli; conditions: 0.3 mM peptide, A405, FIG. 3b
Description: The adhesion of bacteria to fibronectin coated wells was determined by measuring absorbance at 405 nm. For (A) and (B), each column is the average of three experiments.
Fibronectin binding—Binding was quantified using the protocol described by Gophna et al (32). Briefly, wells of microtiter plates were coated with 100 μl of 5 μg/ml solution of bovine fibronectin (Sigma). The two strains of bacteria were grown to mid-exponential phase (A600, 0.5-0.6) with the various peptides in LB, harvested and suspended in saline. Wells were blocked with 200 μl milk (3%) for 2 hours at RT. Two hundreds micro-liter saline containing 5×10^8 cells/ml bacteria (A600, 0.9) were added to the wells with 0.3 mM of the suitable peptide and were incubated at RT for 3 h. Wells were washed twice with 200 μl PBS-T (0.05% Tween) and once with 200 μl PBS. The optical density of adherent bacteria was determined by the use of a microplate reader (ELISA) (A405), subtracting the optical density of an empty coated well.

[3] = test system: curli-expressing E. coli K-12 XL1-Blue(pMRInv); test: Quantitative Congo red (CR) binding of curli expressing bacteria; conditions: 0.3 mM peptide, FIG. 3a
Description: Binding units represent the decrease in absorbance (A487) of the CR solution after incubation with bacteria.
Congo red binding—Bacterial inoculums were grown in 6 ml LB medium for 5-7 hours at 37° C. in the presence or absence of 0.3 mM peptide inhibitor, until the cultures reached A600 of approximately 1.2. Each culture was then pelleted (1 min/13200×g) and resuspended in 6 ml saline (0.8% NaCl). Three double dilutions were performed for each culture and bacterial concentrations were determined at A600. Each dilution was divided into 3 microtubes (1 ml for each) and pelleted by centrifugation for 2 min/13200×g. A 0.004% solution of CR (in saline) was prepared and optical density at 487 nm was measured against a saline background. One thousand, 500 and 200 μl of CR solution were then added to each dilution triplets, the bacteria were well resuspended in the dye and left for 10 min incubation at RT. Next, a second centrifugation (2 min/13200×g) was performed and the supernatants containing the remaining dye were recovered. The optical density at 487 nm of each supernatant was determined and compared to the initial absorbance.
Inhibition was examined by directly applying the putative peptide inhibitor at time zero to a growing culture in liquid medium at 37° C. Cells analyzed for CR binding when reached optical density (A600) of approximately 1.2 absorbance units (AU).

[4] = Circular dichroism (CD) spectra and copper binding
Description: FIGS. 2a-b are graphs showing copper binding to QHGGGN (SEQ ID NO: 5) peptide repeat. […] The titration of metal ions to the oligopeptide was performed using small aliquots from stock aqueous solutions of 25 mM CuCl2.2H2O. CD spectrum (250-800 nm) of QHGGGN (0.5 mM, pH 7.5) was measured with the addition of Cu^2+ in increments of 0.0125 mM (as a minimum) of CuCl2 (0.5 μl) from 0 up to 0.65 mM. Typically, 50 mM HEPES pH 7.5 buffer was used for CD studies. Spectra were obtained using an AVIV spectrapolarimeter and a 5 mm (FIG. 2a) and 10 mm (FIG. 2b) path length cuvettes.
Circular dichroism (CD) spectra and Copper binding—Circular Dichroism (CD) spectra, 250-800 nm, of the curli QHGGGN hexapeptide repeat in the absence and presence were preformed. […] The titration of metal ions to the oligopeptide was performed using small aliquots from stock aqueous solutions of 25 mM CuCl2-2H2O. CD spectrum (250-800 nm) of QHGGGN (0.5 mM, pH 7.5) was measured with the addition of Cu^2+ in increments of 0.0125 mM (as a minimum) of CuCl2 (0.5 μl) from 0 up to 0.65 mM. 50 mM HEPES pH 7.5 buffer was used for CD studies.

[5] = test system: E. coli XL1-Blue(pMRInv) internalization into HEK293 cells; test: Internalization assay (antibiotic protection assay) in HEK293 cells; conditions: 0.4 mM peptide, HEK293, 3 h at 37° C., gentamicin protection
Description: Internalization assay—Epithelial cells were grown overnight in 24-well plates to 80% confluence (˜10^5 cells per well). Bacteria were inoculated in LB broth and grown at 37° C. for 16 h, diluted 100-fold, and grown to mid-exponential phase (A600, 0.4) in the presence or absence of 0.4 mM peptide inhibitor. Bacteria were then diluted to A600, 0.1 in LB and 20 μl were added to each well with epithelial monolayer for 3 h incubation at 37° C. […] Cells were washed once with PBS, pH 7.3, and PBS containing 100 μg/ml gentamicin was added. After 1.5 h incubation, the cells were washed twice in PBS, and lysed by 5 min incubation with ice-cold 0.5% triton X-100. Appropriate bacterial dilutions were plated to determine the number of viable internalized bacteria. E. coli XL1-Blue was maintained on Luria-Bertani (LB) agar and E. coli XL1-Blue(pMRInv) was maintained on LB agar containing 30 μg/ml kanamycin. […]
For that purpose, an antibiotic protection assay was effected using HEK293 cell-line. […] Following exposure to the antibiotic gentamicin, eukaryotic cells were analyzed for bacteria internalization rate by the determination of the colony forming units (cfu) of the surviving bacteria (FIG. 4a).

[6] = target: the molecule itself; test: TEM of peptide self-assembly

In the case of HGQGNG, the “aggregation potential (amount of aggregates) of scrambled QHGGGN sequences” value ([1]; TEM, FIG. 1c) is reported as “highly aggregative and much more abundant” and the “self-assembly / fibril formation observed by TEM” value [1] is reported as “amorphous aggregates”.

In the case of GQNHGG, the “self-assembly / fibril formation observed by TEM” value [1] is reported as “fibril-like structured”.

In the case of NHQGGG, the “self-assembly / fibril formation observed by TEM” value [1] is reported as “small amount but highly ordered assemblies”.

For QAGGGN, the “structures observed by TEM after prolonged incubation” value ([1]; following 30 days of incubation) was “only minor amounts of amorphous aggregates”, the “self-assembly / fibril formation observed by TEM” value [1] was “ability was lost; also recorded: no ordered structures could be detected” and the “bacterial adhesion to fibronectin coated wells” value [2] was “no significant effect”. For the same molecule, the “binding of CR in comparison to XL1-Blue(pMRInv) grown in absence of peptide” value [3] was “no significant difference”.

In the case of QHGGGN [curli hexapeptide repeat], the “fibrillization in the presence of copper” value ([1]; electron microscopy, 48 hours with equimolar CuCl2 in 50 mM HEPES, pH 7.5, room-temperature) is reported as “did not induce fibrillization”, the “self-assembly / fibril formation observed by TEM” value [1] is reported as “assembled into fibrillar structures” and the “self-assembly / fibril formation observed by TEM” value ([1]; listed as NH2-QHGGGN-COOH) is reported as “well-ordered fibrillar structures”. The “Cu^2+ binding stoichiometry” value ([4]; CD signal at 590 nm, peptide 0.5 mM, pH 7.5, 50 mM HEPES, CuCl2 0 up to 0.65 mM) was “equimolar binding stoichiometry; also recorded: single Cu^2+ ion binding for each peptide molecule” and the “affinity of copper binding for a single repeat” value ([4]; binding curve sigmoid at concentrations in the hundreds of μM range) was “not high”.

For QFGGGN, the “fibril formation in a mixture of QFGGGN and QAGGGN peptides” value ([1]; mixture with QAGGGN, 3-6 days incubation, TEM) was “not inhibited”, the “self-assembly / fibril formation observed by TEM” value [1] was “assembled into fibrillar structures” and the “self-assembly / fibril formation observed by TEM” value ([1]; listed as NH2-QFGGGN-COOH) was “well-ordered fibrillar structures”. The “bacterial adhesion to fibronectin coated wells” value [2] was “no significant effect”, the “binding of CR in comparison to XL1-Blue(pMRInv) grown in absence of peptide” value [3] was “no significant difference” and the “amount of internalized bacteria (cfu) in eukaryotic cells” value [5] was “did not interfere with bacterial invasion process”.

B1: QHGGGN peptide (NH2-QHGGGN-COOH) (peptide)
peptide: H-QHGGGN-OH
notes: also called curli QHGGGN hexapeptide repeat
B1: binds [6].

B2: QFGGGN peptide (NH2-QFGGGN-COOH) (peptide)
peptide: H-QFGGGN-OH
notes: also called curlin repeat; oligopeptide repeat QFGGGN
B2: binds [6].
